From patent publication US10288626B2, “Secreted tumor-associated cytochrome as a blood-based biomarker for cancer” (University of Kentucky Research Foundation, priority 2012, dated 2019)

Key:
NCI-H226 cells = assay: Viability / growth of NCI-H226 squamous cell lung cancer cells treated with AG-205; format: cell-based; details: 96 hours
Procedure: FIG. 2 depicts Pgrmc1 expression and biological activity in SCLC cell lines. (A) Pgrmc1 expression was tested in a group of 3 commonly used SCLC cell lines (upper panel), and ku70 was used as a loading control (lower panel). […] Cells were maintained in medium lacking serum for the indicated time and in all cases, viability was determined by cell counting. (C) Pgrmc1 expression was inhibited by siRNA transfection (upper panel, lane 2) relative to the control transfection (upper panel, lane 1). […] Cells were maintained in media lacking serum for the indicated times. (E) The expression of the exogenous Pgrmc1-hbd protein was detected by western blot in NCI-H226 cells infected with a control adenovirus (lane 1), encoding LacZ, or the Pgrmc1-hbd expression virus (lane 2). The top panel was probed with an antibody to the HA epitope tag sequence, with which Pgrmc1-hbd is fused. (F) NCI-H226 cells were treated with increasing doses of the Pgrmc1 inhibitor AG-205 and maintained with serum (dashed line) or without serum (solid line) for 96 hours.
Tissue culture: […], SK-MES-1 and SW900 squamous cell lung cancer cells and A549 lung adenocarcinoma cells were obtained from the American type culture collection (ATCC) and cultured according to their instructions. The identities of the cell lines were confirmed by Genetica DNA Laboratories (Cincinnati, Ohio). […]
Conditioned media from control and Pgrmc1 knockdown A549 NSCLC cells were generated by incubating cells in serum-free DMEM media for 24 hours. […] For fluorescent activated cell sorting (FACS), cells were stained with propidium iodide and analyzed as described (Mallory et al., Mol Pharmacol 2005, 68: 1747-56). […] For viability assays, cells were plated in 24 well dishes, washed with PBS and harvested by trypsinization and counted using a hemocytometer. Where indicated, cells were plated in 96 well dishes, and viability was measured by 3-(4,5-Dimethylthiazol-2-yl)-2,5-diphenyltetrazolium bromide (MTT) assay, as described (Hand and Craven. J Cell Biochem 2003, 90:534-47).

tumor cells = details: cited from earlier work
EGFR = details: cited from earlier work

With `Cc1ccc2c(c1)[C@H]1CN(C)CC[C@H]1N2C(=O)CSc1nnnn1-c1ccc(Cl)cc1` [AG-205] the IC50 (NCI-H226 cells; absence of serum, read-out: IC50, growth inhibition of NCI-H226 cells) was 9 µM, the “effect on viability of NCI-H226 cells” value (NCI-H226 cells; absence of serum, increasing doses) was “loss of viability” and the “activity on growth of NCI-H226 cells” value (NCI-H226 cells; presence of serum) was “minimal activity”. For the same compound, the “effect on growth in tumor cells” value (tumor cells) was “inhibits growth” and the “effect on EGFR levels” value (EGFR) was “decreases EGFR levels”.
